Experimental data from ChEMBL document CHEMBL1137153, “Synthesis of 7 alpha- and 7 beta-spermidinylcholesterol, squalamine analogues” (2004).
≈ marks a conversion by molar mass, not a printed value.

Assays:
Format in all cases: functional
[1] = tested on: Candida albicans; test: Minimal inhibitory concentration against Candida albicans (strain CIP 1180-79) after 48 hr of incubation was evaluated; details: CIP 1180-79, 48 h
[2] = tested on: Saccharomyces cerevisiae; test: Minimal inhibitory concentration against Saccharomyces cerevisiae (strain ATC 28383) after 48 hr of incubation was evaluated
[3] = tested on: Staphylococcus aureus; test: Minimal inhibitory concentration against Staphylococcus aureus (strain CIP 54127) after 48 hr of incubation was evaluated; details: CIP 54127, 48 h
[4] = tested on: Enterococcus hirae; test: Minimal inhibitory concentration against Enterococcus hirae (strain CIP 5855) after 48 hr of incubation was evaluated; details: CIP 5855, 48 h
[5] = tested on: Escherichia coli; test: Minimal inhibitory concentration against Escherichia coli (strain 54127) after 48 hr of incubation was evaluated
[6] = tested on: Candida albicans; test: Minimal inhibitory concentration against Candida albicans (strain CIP 1180-79) after 48 hr of incubation was evaluated; Range = 4 - 8 ug/mL; details: CIP 1180-79, 48 h

MIC [1] | MIC [2] | MIC [3] | MIC [4] | MIC [5] | MIC [6] | Structure (SMILES)
3.12 µg/mL (≈ 5.89 µM) | 3.12 µg/mL (≈ 5.89 µM) | 6.25 µg/mL (≈ 11.8 µM) | 6.25 µg/mL (≈ 11.8 µM) | 3.12 µg/mL (≈ 5.89 µM) | – | CC(C)CCC[C@@H](C)[C@H]1CCC2C3C(CC[C@@]21C)[C@@]1(C)CC[C@H](O)CC1=C[C@@H]3NCCCNCCCCN (stereo partly drawn)
6.25 µg/mL (≈ 11.8 µM) | 3.12 µg/mL (≈ 5.89 µM) | 3.12 µg/mL (≈ 5.89 µM) | 3.12 µg/mL (≈ 5.89 µM) | 6.25 µg/mL (≈ 11.8 µM) | – | CC(C)CCC[C@@H](C)[C@H]1CCC2C3C(CC[C@@]21C)[C@@]1(C)CC[C@H](O)CC1=C[C@H]3NCCCNCCCCN (stereo partly drawn)
– | – | 1.56 µg/mL (≈ 2.48 µM) | – | > 100 µg/mL | 8 µg/mL (≈ 12.7 µM) | CC(C)[C@@H](CC[C@@H](C)[C@H]1CC[C@H]2[C@@H]3[C@H](O)C[C@H]4C[C@@H](NCCCNCCCCN)CC[C@]4(C)[C@H]3CC[C@]12C)OS(=O)(=O)O [SQUALAMINE]
